This note sets out measurements from a melting point compilation (Tetko et al.; mined from patent text by program, amines drawn as free bases though some values may be those of a salt).

SMILES strings stand for the structures.

Usually melting point stands for the temperature of the solid-liquid transition. Consider `C(=Cc1ncon1)c1ccccc1`, for which the melting point turned out to be 82 °C.

In turn, `Cc1cc2oc(C(N)=O)cc(=O)c2c(C)c1Cl` gave a melting point of over 300 °C.

Take `COCCOCCOCc1c(Br)c(Br)c(Br)c(Br)c1Br`: the melting point is 83 °C.

Regarding `COc1ccc(-c2nc(CNc3ccccc3)nc3cc(OC)c(OC)cc23)cc1OC`, the melting point lay in the range of 199 to 200 °C.

For the compound `CCc1nc(C)c(C(=O)Nc2cc(Oc3ccc4nc(NC(=O)C5CC5)cn4n3)ccc2F)o1`, the melting point was 228 °C.

Consider `CC(C)(O)c1nnc2ccc(-c3c(-c4ccc(F)cc4F)nc4occn34)nn12`, for which the melting point fell in the range of 258 to 260 °C.

On to `CCc1ccccc1C=C1CCN2Cc3ccccc3N=C12`, for which the melting point was 224 to 225 °C.

In turn, `CN1CCN(c2cccc3ccc(Nc4ccc([N+](=O)[O-])cc4[N+](=O)[O-])cc23)CC1` yielded a melting point of 153 to 154 °C.

`CCCNS(=O)(=O)c1cc(C(=O)CCC(=O)OC)ccc1Cl`: the melting point lay in the range of 93 to 94 °C.

With `CCCC(=O)c1c[nH]c2ccc(OC)cc2c1=O`, the melting point was in the range of 252 to 254 °C.

Regarding `Cc1c(CCC(=O)O)ccc2c3ccccc3n(Cc3ccccc3)c12`, the melting point is 160 to 162 °C.

For the compound `CCCC1C(=O)N(S(=O)(=O)c2ccc3ccccc3c2)C2CCN(S(=O)(=O)CCCN3CCOCC3)C12` (configuration not stated), the melting point is 189 to 192 °C.

In the case of `O=C1c2ccccc2OCN1CCO[N+](=O)[O-]`, the melting point is 49 to 51 °C.

For the compound `Cc1cccc2c(C(=O)O)cc(-c3ccccn3)nc12`, the melting point fell in the range of 319 to 320 °C.

Regarding `Sc1nccn1Cc1ccc(Cl)cc1`, the melting point fell in the range of 187 to 189 °C.

Regarding `Cn1nnc2cc(C(=O)NC3CCCn4c3nc(-c3ccncc3)cc4=O)ccc21` (racemic), the melting point fell in the range of 267 to 269 °C.

`OCc1cc2c3ccccc3n(Cc3ccccc3)c2cn1` showed a melting point of 120 to 122 °C.

With `Cc1cccc(C)c1N(CCn1ccnc1)C(=O)CCCc1cccnc1`, the melting point fell in the range of 104 to 106 °C.

`O=C(O)COc1ccc(SCc2cc(-c3ccc(C(F)(F)F)cc3)no2)c2c1CCC2` yielded a melting point of 166 to 168 °C.

Regarding `CC(C)(C)c1cc(C(C)(C)C)c2oc(N)c(-c3ccccc3)c2c1`, the melting point lay in the range of 174 to 178 °C.

Consider `CCOC(=O)CC(=O)Nc1ncc(Br)s1`, for which the melting point was 165 to 166 °C.

For the compound `CC(=O)Nc1cc(C)c(N)c(C)c1[N+](=O)[O-]`, the melting point worked out at 197 °C.

Turning to `COc1ccc2c(c1)CCC1CCNC(=O)C(CC(=O)O)=C21` (configuration not stated), the melting point fell in the range of 232 to 234 °C.

`Cc1cc(CNC(=O)c2sc(N3C[C@@H](C)N(Cc4ccc(F)cc4)C3=O)nc2C)[nH]n1` returned a melting point of 215 to 216 °C.

Compound `CCOC1=NS(=O)(=O)c2cc(NC=O)ccc21` registered a melting point of 188 to 194 °C.

In turn, `CCOC(=O)c1ccc(C(CCc2cc(Cl)ccc2N2CCCCC2)C(N)=O)cc1` (configuration not stated) came in with a melting point of 95 to 97 °C.

With `O=C(CS(=O)(=O)c1cccs1)C12CC3CC(CC(C3)C1)C2`, the melting point was 118 to 119 °C.

In the case of `CCNS(=O)(=O)/C=C/c1ccc2[nH]cc(C3CCN(Cc4ccccc4)CC3)c2c1`, the melting point lay within 178 to 180 °C.

For `CSc1cc(C(=O)CBr)ccc1C`, the melting point fell in the range of 85 to 86 °C.

In the case of `C=CCNC(=O)C1CCc2ccccc2O1` (configuration not stated), the melting point fell in the range of 76 to 77 °C.

Turning to `COc1ccc(CCCCC(=O)O)cc1NC(=O)C[C@H]1O[C@H](c2cccc(OC)c2OC)c2cc(Cl)ccc2N(CC(C)(C)CO)C1=O`, the melting point fell in the range of 136 to 138 °C.

In turn, `COc1cc(C)c(C(=O)c2c(C(F)(F)F)ccnc2Cl)cc1OCc1ccccc1` returned a melting point of 116 to 117 °C.

Turning to `Oc1ccc2cc(Cc3c(Cc4ccccc4)sc4ccccc34)ccc2c1Br`, the melting point fell in the range of 110 to 112 °C.

On to `N#Cc1ccc(N2C(=O)N(CCCO)C3(CCOCC3)C2=O)cc1C(F)(F)F`, for which the melting point was 155 to 156 °C.

For `CCOC(=O)CN1CCN(Cc2cnc(-c3cc4cccc(N(C)S(=O)(=O)c5cccs5)c4[nH]3)s2)CC1`, the melting point was in the range of 167 to 169 °C.

Compound `COCOc1cc(F)ccc1-c1cc(-c2cccc(C(=O)OC)c2)c(C#N)c(NC(=O)c2ccco2)n1` had a melting point of 160 to 162 °C.

As to `Cc1c(C)c(N2Cc3ccccc3C2)c(C)c2c1OC(C)(C)C2`, the melting point lay in the range of 161 to 163 °C.

Turning to `CCOC(=O)c1cnc(N2CCN(S(=O)(=O)c3ccc4ccccc4c3)CC2)nc1`, the melting point was over 260 °C.

`CN(c1cccc2cc(C(=O)O)[nH]c12)S(=O)(=O)c1nccn1C` displayed a melting point of 241 to 242 °C.

In the case of `CCSCC1=C(O)CC(C)(C)CC1=O`, the melting point was 134 °C.

For the compound `CCCCc1nc2c(N)nc3ccc(O)cc3c2n1CCCCNS(C)(=O)=O`, the melting point lay in the range of 223 to 227 °C.

Take `CC1CCC(Oc2cc(F)cc(C(=O)Nc3ccc(OCCN4CCOCC4)c4ccccc34)c2)C1` (configuration not stated): the melting point is 65 to 66 °C.

Compound `O=C1c2cccc(Sc3ccccc3)c2C(=O)c2cccc(Nc3ccc([N+](=O)[O-])cc3)c21` returned a melting point of 242 to 244 °C.

For the compound `CCOC(=O)C=Cc1ccc(OCC)c([N+](=O)[O-])c1`, the melting point lay in the range of 90 to 92 °C.

The compound `CC(C)(C)OC(=O)N1CCN(c2nc(N)nc3nc(N)c(-c4ccccc4)nc23)CC1` displayed a melting point of 245 to 246 °C.

`Cn1cc(C(=O)C(=O)Oc2c(F)c(F)c(F)c(F)c2F)c2ccccc21` displayed a melting point of 168 to 169 °C.

Compound `Nc1ccc2c(c1)OCCNC2=O` had a melting point of 151 to 152 °C.

In the case of `CCC(C)C(NC(=O)C(C)N(C(=O)OC(C)(C)C)C1CCCCC1)C(=O)NC(CC1CCCCC1)C(O)C(O)CC(C)C` (configuration not stated), the melting point was 181 to 182 °C.

`CCOC(=O)c1cnn(-c2ccc(CBr)cc2)n1` registered a melting point of 148 to 149 °C.

Take `COc1cc(OC(C)C)ccc1/C=C/c1cc(/C=C/c2ccc3cc[nH]c3c2)n[nH]1`: the melting point was 107 to 113 °C.

As to `COc1nc(NC(=O)NS(=O)(=O)c2ccccc2OC(F)F)nc(C2CC2)n1`, the melting point was in the range of 121 to 124 °C.

Regarding `O=C1OC2(CCN(C(=O)Nc3ncc(-c4ccccc4)cn3)CC2)c2cccc(F)c21`, the melting point lay in the range of 247 to 249 °C.

As to `CCn1c(C(C)C)cc(-c2ccc(F)cc2)c1-c1ccccc1`, the melting point stood at 110 °C.

With `O=C(O)c1cccc(-c2cnn3c(O)ncnc23)c1`, the melting point is over 300 °C.

`O=c1[nH]c2cc(F)c(F)cc2cc1P(=O)(O)O`: the melting point was in the range of 245 to 252 °C.

Take `CCCCOC(=O)CNC(=O)c1ccc2cc(C(=O)OC)[nH]c2c1`: the melting point is 181 to 184 °C.

`CN(C)S(=O)(=O)n1cnc(-c2ccc(Cl)cc2Cl)c1` displayed a melting point of 169 to 171 °C.

`CS(=O)(=O)c1ccc(-c2nc(C(F)(F)F)nc(N=[N+]=[N-])c2-c2ccccc2)cc1` registered a melting point of 172 to 175 °C.

For the compound `Nc1cc(=O)n(C2CCCC2)c2nc(N[C@H]3CC[C@H](O)CC3)ncc12`, the melting point lay in the range of 246 to 248 °C.

`NC(=O)C1(c2ccc(C#Cc3ccccc3)cc2)CC1` came in with a melting point of 174 to 176 °C.

`CC(C)(C)OC(=O)NCCNS(=O)(=O)c1cc([N+](=O)[O-])c(Cl)s1` displayed a melting point of 116 °C.

In turn, `CC[C@@H](C[C@H](O)[C@H](CC1CCCCC1)NC(=O)[C@H](Cc1c[nH]cn1)NC[C@H](Cc1ccccc1)NC(=O)OC(C)(C)C)C(C)C` registered a melting point of 144 °C.

For `O=C(c1ccccc1)C1C=C(Cl)C=CC1(F)NCCO` (configuration not stated), the melting point fell in the range of 96 to 101 °C.

`Cc1cc(C#N)cc(Oc2nc(Cl)nc(Cl)c2C(C)C)c1`: the melting point fell in the range of 143 to 144 °C.

Compound `O=c1c2ccc(O)cc2oc2c1oc1c3ccccc3ccc21` yielded a melting point of over 300 °C.

Compound `O=C(Nc1ccc2ccc(Cl)nc2n1)C1=CSCS1` came in with a melting point of 235 °C.

With `COc1cc2c(cc1C)C1(CO2)C(=O)N(Cc2ccccn2)c2ccccc21` (configuration not stated), the melting point fell in the range of 142 to 144 °C.

As to `Cc1ccc(S(=O)(=O)N2CCC[C@H]2C(=O)N[C@@H](Cc2ccc(NC(=O)C3CCNCC3)cc2)C(=O)O)cc1`, the melting point was 125 to 128 °C.

`CCOC(=O)C(O)c1ccc(-n2cccc2)cc1` (configuration not stated) gave a melting point of 126 to 128 °C.

`CCC1OC(=O)Nc2ccc(-c3cccc(Cl)c3)cc21` (configuration not stated) gave a melting point of 146 to 148 °C.

Compound `CC12CCC(O)CC1CCC1C2CCC2(C)C(C(=O)CSc3ccncc3)CCC12` (configuration not stated) gave a melting point of 154 to 156 °C.

For `CCOC(=O)C=CCn1c(C(=O)c2cc(C)cc(C)c2)c(CC)c(=O)[nH]c1=O`, the melting point is 157 to 158 °C.

For `CC(=O)OCCn1ccc(=O)c(O)c1Cc1ccccc1`, the melting point is 140 to 141 °C.

In the case of `Cc1ccc2c(O)c(C(=O)O)cnc2c1`, the melting point was in the range of 264 to 265 °C.

Compound `CNC(=O)[C@H](Cc1ccc2ccccc2c1)NC(=O)C(CCOc1c(F)c(F)c(F)c(F)c1F)CC(=O)O` (some centres not stated) returned a melting point of 68 to 69 °C.

Regarding `CCCn1nc2c(N)nc3ccccc3c2c1CCN(C(N)=O)c1ccc(F)c(F)c1`, the melting point lay within 211 to 212 °C.

On to `CC(=O)O[C@H]1C[C@@H](n2ncc(Cl)c(Cl)c2=O)[C@H](O)[C@@H]1O` (racemic), for which the melting point lay in the range of 119 to 122 °C.

`Cc1c(C(=O)O)ccc2c1C(O)CCS2(=O)=O` (configuration not stated): the melting point lay within 172 to 173 °C.

In the case of `CC(C)(C)OC(=O)NCCN(CC(=O)O)C(=O)OCc1ccccc1`, the melting point was 64.5 to 85 °C.

In the case of `COc1ccc(C=Cc2ccc(O)c(OC)c2)cc1`, the melting point fell in the range of 163 to 166 °C.

`CCc1cc(=O)c(C(N)=O)c(CC)[nH]1` gave a melting point of 254 °C.

`CS(=O)(=O)c1ccc(-c2cnn(-c3ccc(Oc4ccccc4)cc3)c(=O)c2-c2ccc(F)cc2)cc1` showed a melting point of 118 to 125 °C.

For `Cc1ccc(N2C(=O)N(CC(=O)Nc3c(C(C)C)cccc3C(C)C)C(=O)C23CCC(O)CC3)cc1` (configuration not stated), the melting point fell in the range of 142 to 144 °C.

The compound `COC(=O)CC(=O)C=Cc1cc2ccccc2s1` gave a melting point of 105 to 107 °C.

Take `CC(=O)OCCC1=CCC2C3CCC4=CCC=CC4(C)C3C(O)CC12C` (configuration not stated): the melting point is 203 to 205 °C.

Turning to `O=C1C(=O)N(Cc2ccc([N+](=O)[O-])cc2)CCN1Cc1ccc([N+](=O)[O-])cc1`, the melting point lay within 257 to 260 °C.

In turn, `O=C(OCc1ccncc1)c1cc2c(=O)n(Cc3ccccc3)c(=O)[nH]c2s1` returned a melting point of 248 to 250 °C.
